Laboratory results as given in US10449261B2, “Compositions targeting radiation-induced molecules and methods of use thereof” (Washington University, priority 2014, dated 2019).
Entries after “also recorded” stand apart in the source; their conditions may differ. Numbered stars: 1 amine (or outer) side, 2 acyl side, 3 side chain; on linkers, the order of the positions; unused ones are H or OH. Primed or numbered codes have the meaning given here. Ends that are not written are not given here. * marks the point of attachment. K(CHX-A″-DTPA) = O=C(O)CN(CC(=O)O)[C@H](Cc1ccc(NC(=S)NCCCC[C@H](N[*:1])C(=O)[*:2])cc1)CN(CC(=O)O)[C@H]1CCCC[C@@H]1N(CC(=O)O)CC(=O)O; FITC = O=C1OC2(c3ccc(O)cc3Oc3cc(O)ccc32)c2ccc(NC(=S)*)cc21; DTPA = O=C(O)CN(CCN(CC(=O)O)CC(=O)O)CCN(CC(=O)O)CC(=O)*; PEG = not defined here; AEEA = NCCOCCOCC(=O)O

What was measured:
[1] = test system: cervical (HT3) heterotopic tumors; details: for effect of tumor irradiation on tumor binding: HT3, right hind limb 3 fractions of 3 Gy vs sham left
Experimental: (§7) Nude mice bearing the HT3 and OE33 tumors in both the hind limbs were used (˜1 cm^3). Since radiotherapy is used in treating cervical and esophageal cancers, we also irradiated the tumors. The tumor on the right hind limb was irradiated with 3 fractions of 3 Gy over a course of 24 h, the tumor on the left hind limb was used as sham control. The mice were then injected with 500 μCi (10 μCi/μg) of radiolabeled peptide via tail vein. SPECT/CT imaging was performed at 48 and 72 h post injection.
(§8) Tumor models were established in 6 to 8-week-old female athymic nude mice obtained from Harlan laboratories (USA). Heterotopic tumors were induced by sub-cutaneously injecting tumor cells (1-3×10^6) into hind limbs of athymic nude mice. The tumors were grown until a size of 1 cm^3 before using the mice for SPECT imaging.
(§9) Whole body SPECT images were obtained at 48 and 72 h post injection (p.i.) using a NanoSPECT/CT imager (Bioscan Inc., Washington, D.C., USA) fitted with 2 mm pinhole collimators in helical scanning mode. Mice were placed in prone position and scanned under anesthesia (0.5 L/min 1.5% isoflurane in air). A 45-keV helical CT scan was performed first and then the SPECT acquisition was performed at 24 projections and 60 s per projection, for a total scan time of about 45 min. Tomographic data were reconstructed iteratively with the manufacturer-supplied InVivoScope and HiSPECT software for CT and SPECT, respectively.
(§10) After scanning, 96 h p.i., the bio-distribution of the labelled peptide in various organs was determined. The animals were sacrificed and organs of interest including blood were dissected/collected, weighed, and counted in a gamma counter along with a standard of the injected activity to allow calculation of the injected dose per organ (% ID/organ).

[2] = test system: esophageal (OE33) heterotopic tumors; assay: NanoSPECT/CT imaging and post-SPECT biodistribution in tumor bearing nude mice; details: for effect of tumor irradiation on tumor binding: OE33, right hind limb 3 fractions of 3 Gy vs sham left; for tumor uptake, post-SPECT biodistribution, compared to control peptide: OE33 tumor bearing mice, 96 h after injection; for tumor binding by SPECT imaging: OE33 tumors, 48 h and 72 h post injection, 500 μCi via tail vein
Experimental: as §7, §8, §9, §10

[3] = test system: glioblastoma (D54) tumors; assay: SPECT/CT imaging of tumor models; type: in vivo, mice; details: right hind limb 3 doses of 3 Gy
Excerpt: (§1) In addition we also screened lung cancer (A549), pancreatic cancer (BxPC3) and glioblastoma (D54) tumor models for binding of radiolabeled GIRLRG (SEQ ID NO:1) peptide.

[4] = test system: lung cancer (A549) tumors; assay: SPECT/CT imaging of tumor models; type: in vivo, mice; details: right hind limb 3 doses of 3 Gy
Excerpt: as §1

[5] = test system: pancreatic cancer (BxPC3) tumors; assay: SPECT/CT imaging of tumor models; type: in vivo, mice; details: right hind limb 3 doses of 3 Gy
Excerpt: as §1

brain tumors = assay: SPECT imaging of 111In-labeled PEG-GIRLRG (Example 1); type: in vivo, mouse; details: 72 hours following administration, 3 Gy vs 0Gy
Experimental: (§2) The right hind limb tumor was treated with 3 Gy and left hind limb tumor is an untreated (0Gy) internal control in the same mouse.

cervix tumors = assay: as above; type: in vivo, mouse; details: 72 hours following administration, 3 Gy vs 0Gy
Experimental: as §2

esophageal tumors = assay: as above; type: in vivo, mouse; details: 72 hours following administration, 3 Gy vs 0Gy
Experimental: as §2

cancer = assay: Optimisation of the peptide construct: circulation and cancer binding; details: in vivo
Excerpt: The GIRLRG (SEQ ID NO:1) peptide conjugated to a poly-lysine linker for DOTA and DTPA conjugation was first studied. […] The duration of tumor binding was improved by PEGylation, with longer circulation times and prolonged imaging in cancer. […] Both PEG20 and PEG40 are effective at enhancing prolonged binding in cancer. […]

A549 (lung cancer) = assay: Binding of FITC-conjugated GIRLRG to cancer cells (fluorescent microscope); type: cell-based, human; details: 10 μg/ml, 2 h, 37° C.
Experimental: (§3) Four cancer cell lines D54 (glioma), HT3 (cervical), OE33 (eosophageal) and A549 (lung cancer) were used to evaluate binding of GIRLRG (SEQ ID NO:1) peptide. Cancer cells were incubated with FITC-conjugated GIRLRG (SEQ ID NO:1) peptide and fluorescent images were acquired using a fluorescent microscope.
(§4) Cell Lines: Human lung adenocarcinoma A549 and Human glioblastoma D54 cells were cultured in DMEM/F12, human esophageal carcinoma OE33 cells in RPMI and HT3 cells in IMDM media supplemented with 10% fetal bovine serum, penicillin and streptomycin. They were maintained at 37° C. in a 5% CO2 incubator.
(§5) Immunofluorescence: Cancer cells (A549, HT3, D54 and OE33) were grown on chamber slides (Millipore, USA) and incubated with 10 μg/ml FITC-GIRLRG (SEQ ID NO:1) peptide for 2 h at 37° C. in a CO2 incubator. The cells were then washed with PBS to remove unbound peptide and fixed with 4% paraformaldehyde at room temperature. The nuclei were stained with DAPI and fluorescent images were captured using a Carl Zeiss microscope (Tokyo, Japan).

D54 (glioma) = assay: as above; type: cell-based, human; details: 10 μg/ml, 2 h, 37° C.
Experimental: as §3, §4, §5

OE33 (eosophageal) = assay: as above; type: cell-based, human; details: 10 μg/ml, 2 h, 37° C.
Experimental: as §3, §4, §5

HT3 (cervical) = assay: as above; type: cell-based; details: 10 μg/ml, 2 h, 37° C.
Experimental: as §3, §4, §5

irradiated A549 tumors = assay: SPECT imaging and gamma emission of organs and tumors (Example 1); type: in vivo, mice; details: mice with A549 tumors, 3 Gy
Experimental: (§6) SPECT images of the spatial and temporal pharmacokinetics of ^111In-labeled PEG-GIRLRG and ^111In-labeled control peptide within irradiated mouse A549 tumors is shown in FIG. 1. At 7 days after administration, gamma emission from each of the organs and tumors of mice injected with PEG-GIRLRG (SEQ ID NO:1) and PEG-control peptide was measured (FIG. 2).

[6] = test system: irradiated mouse A549 tumors; assay: as above; type: in vivo, mice; details: A549 tumors, 7 days after administration
Experimental: as §6

[7] = Size and aggregation of pegylated peptides (dynamic light scattering); type: physicochemical
[8] = molecular target: T1, recombinant eukaryotic GRP78 protein (Prospec, USA) (UniProt P11021 19-654, limits assumed); assay: SPR (BIAcore 2000), GRP78 amine-coupled on a CM4 chip, peptide as analyte at 0.313-10 mM, 25 C, HBS-EP
T1 construct: Immobilised by amine coupling on a CM4 chip; also called Glucose-regulated protein 78 kDa; Glucose Regulatory Protein-78
T1 sequence (P11021 19-654 limits assumed): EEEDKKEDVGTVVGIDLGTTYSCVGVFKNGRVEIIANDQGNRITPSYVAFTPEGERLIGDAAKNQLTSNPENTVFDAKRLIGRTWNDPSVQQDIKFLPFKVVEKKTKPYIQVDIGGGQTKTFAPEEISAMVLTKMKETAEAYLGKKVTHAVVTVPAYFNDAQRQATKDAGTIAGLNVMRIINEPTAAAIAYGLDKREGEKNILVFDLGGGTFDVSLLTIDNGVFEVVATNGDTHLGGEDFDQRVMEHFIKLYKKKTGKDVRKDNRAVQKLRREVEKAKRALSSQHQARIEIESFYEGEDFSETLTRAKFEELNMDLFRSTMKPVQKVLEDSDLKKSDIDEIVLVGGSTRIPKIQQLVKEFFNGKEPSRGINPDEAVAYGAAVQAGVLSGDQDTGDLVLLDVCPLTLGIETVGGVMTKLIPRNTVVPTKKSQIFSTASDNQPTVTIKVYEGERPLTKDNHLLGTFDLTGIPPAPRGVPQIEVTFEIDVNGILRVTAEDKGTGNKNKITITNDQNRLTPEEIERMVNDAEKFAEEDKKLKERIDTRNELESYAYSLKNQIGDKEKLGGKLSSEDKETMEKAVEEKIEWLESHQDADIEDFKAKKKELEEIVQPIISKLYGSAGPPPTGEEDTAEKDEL
Experimental: To determine the binding affinity of GIRLRG (SEQ ID NO:1) peptide to GRP78 protein, we used surface plasmon resonance technology. GRP78 protein was immobilized on the surface of CM4 sensor chip and approximately 7000 resonance Units (RUs) of GRP78 protein were immobilized (FIG. 6A). The GIRLRG (SEQ ID NO:1) peptide was dissolved in HBS-EP buffer at various concentrations (10, 5, 2.5, 1.25 and 0.313 mM) and passed over the immobilized GRP78 for 2 min (FIG. 6B). The rate constant K_D was obtained by fitting the sensogram data after reference subtraction (data from blank channel) using the BIA evaluation 3.0 software.
Surface Plasmon Resonance (SPR): Affinity of GIRLRG (SEQ ID NO:1) to GRP78 protein was measured by the biosensor-based SPR technique using an automatic apparatus BIAcore 2000 (GE healthcare, Sweden) as described earlier. The recombinant eukaryotic GRP78 protein (Prospec, USA) as ligand that was immobilized by amine coupling on the CM4 sensor surface and GIRLRG (SEQ ID NO:1) peptide was used as the analyte. Experiments were performed at 25° C. in HBS-EP buffer (GE healthcare). GRP78 protein was immobolized using surface preparation wizard for amine coupling. […] The affinity of the interaction was determined from the level of binding at equilibrium as a function of the sample concentrations by BIA evaluation software 3.0.

## GIRLRG [GIRLRG]
[1]
  effect of tumor irradiation on tumor binding: did not interfere with specific binding
[2]
  effect of tumor irradiation on tumor binding: did not interfere with specific binding

## ^111In-labeled PEG-DTPA-GIRLRG: PEG-GIRLRG radiolabeled with ^111Indium by use of DTPA as the chelator ({PEG-DTPA}-GIRLRG; reading uncertain; also: radiolabeled with 111In chelated by DTPA)
[3]
  tumor binding by SPECT/CT imaging: enhanced binding
[4]
  tumor binding by SPECT/CT imaging: enhanced binding
[5]
  tumor binding by SPECT/CT imaging: enhanced binding
Brain tumors
  cancer selective binding: cancer selective binding
Cervix tumors
  cancer selective binding: cancer selective binding
Esophageal tumors
  cancer selective binding: cancer selective binding
cancer
  cancer binding: binds within irradiated cancers
[1]
  effect of tumor irradiation on tumor binding: did not affect tumor binding
[1]; HT3 tumors, 48 h and 72 h post injection, 500 μCi via tail vein
  tumor binding by SPECT imaging: bound
[2]
  effect of tumor irradiation on tumor binding: did not affect tumor binding
  tumor uptake, post-SPECT biodistribution, compared to control peptide: Significantly higher (p<0.001) uptake
  tumor binding by SPECT imaging: bound

## FITC-GIRLRG: FITC-conjugated GIRLRG peptide ({FITC}-GIRLRG)
A549 (lung cancer)
  binding to cancer cells: specifically bound
A549 (lung cancer); listed as FITC labeled GIRLRG
  binding to cancer cells: showed binding
D54 (glioma)
  binding to cancer cells: specifically bound
D54 (glioma); listed as FITC labeled GIRLRG
  binding to cancer cells: showed binding
OE33 (eosophageal)
  binding to cancer cells: specifically bound
OE33 (eosophageal); listed as FITC labeled GIRLRG
  binding to cancer cells: showed binding
HT3 (cervical)
  binding to cancer cells: specifically bound
HT3 (cervical); listed as FITC labeled GIRLRG
  binding to cancer cells: showed binding

## mPEG40K-carbonyl-Lys(CHX-A″-DTPA)-AEEAc-Lys(CHX-A″-DTPA)-AEEAc-Trp-Lys(CHX-A″-DTPA)-AEEAc-GIRLRG ({mPEG40K‑carbonyl-K(CHX-A″-DTPA)-AEEA-K(CHX-A″-DTPA)-AEEA-Trp-K(CHX-A″-DTPA)-AEEA}-GIRLRG) [PEG-GIRLRG]
[3]
  tumor binding by SPECT/CT imaging: specific binding; also recorded: Enhanced tumor binding
[4]
  tumor binding by SPECT/CT imaging: specific binding; also recorded: Enhanced tumor binding
[5]
  tumor binding by SPECT/CT imaging: specific binding; also recorded: Enhanced tumor binding
Irradiated A549 tumors
  binding to irradiated normal tissue: did not bind to irradiated normal tissue
[6]
  tumor binding (gamma emission from organs and tumors): selectively bound to tumors
[7]
  size: 8 nm
[7]; after heating / radiolabeling conditions
  aggregation: did not aggregate even after heating
[2]
  tumor uptake, post-SPECT biodistribution, compared to control peptide: Significantly higher uptake
  tumor binding by SPECT imaging: specifically bound; also recorded: Enhanced tumor binding

B1: GIRLRG (SEQ ID NO:1) peptide (peptide)
peptide: GIRLRG
notes: Unconjugated synthetic hexapeptide, used as the analyte in SPR and as the ligand in the molecular model; also called lead peptide
[8]
  Kd: 2160 µM
